Assay results taken from the supplement of paper PMC11414989.

Legend:
Conditions in all cases: exposure window: 6 hpf to 120 hpf, static, assay age: 120 hpf (5 dpf)
[1] = tested on: Danio rerio larvae (Tropical 5D); experiment: mean distance moved of exposed larvae, light phase (µm per frame (1/25 s)); higher = more movement
Protocol: (§1)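 Larval photomotor response in Tropical 5D wild-type zebrafish. Larvae were statically exposed to each chemical from 6 hpf to 5 dpf in 96-well plates; morphologically abnormal larvae were excluded. At 120 hpf, larvae were tracked with Ethovision XT (25 frames/s) over the 2nd cycle of 3 min light and 3 min dark. Values are the mean movement metric of exposed larvae per phase; same-plate control means (plate-dependent baseline) are given as conditions.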

[2] = tested on: Danio rerio larvae (Tropical 5D); experiment: mean angular velocity of exposed larvae, dark phase (angular velocity (unit not stated)); higher = more movement
Protocol: as §1

[3] = tested on: Danio rerio larvae (Tropical 5D); experiment: mean angular velocity of exposed larvae, light phase (angular velocity (unit not stated)); higher = more movement
Protocol: as §1

[4] = tested on: Danio rerio larvae (Tropical 5D); experiment: mean distance moved of exposed larvae, dark phase (µm per frame (1/25 s)); higher = more movement
Protocol: as §1

SMILES: CC[C@H](C)[C@H]1O[C@]2(C=C[C@@H]1C)C[C@@H]1C[C@@H](C/C=C(\C)[C@@H](O[C@H]3C[C@H](OC)[C@@H](O[C@H]4C[C@H](OC)[C@@H](O)[C@H](C)O4)[C@H](C)O3)[C@@H](C)/C=C/C=C3\CO[C@@H]4[C@H](O)C(C)=C[C@@H](C(=O)O1)[C@]34O)O2.CO[C@H]1C[C@H](O[C@H]2[C@H](C)O[C@@H](O[C@@H]3/C(C)=C/C[C@@H]4C[C@@H](C[C@]5(C=C[C@H](C)[C@@H](C(C)C)O5)O4)OC(=O)[C@@H]4C=C(C)[C@@H](O)[C@H]5OC/C(=C\C=C\[C@@H]3C)[C@]54O)C[C@@H]2OC)O[C@@H](C)[C@@H]1O [Abamectin]
- mean distance moved of exposed larvae ([1]; 0.1 µM): 2.76
- mean distance moved of exposed larvae ([1]; 0.2 µM): 5.62
- mean distance moved of exposed larvae ([1]; 0.4 µM): 2.25
- mean distance moved of exposed larvae ([1]; 0.5 µM): 2.39
- mean distance moved of exposed larvae ([1]; 0.6 µM): 1.04
- mean distance moved of exposed larvae ([1]; 0.8 µM): 0.0237
- mean angular velocity of exposed larvae ([2]; 0.1 µM): 0.434
- mean angular velocity of exposed larvae ([2]; 0.2 µM): 0.554
- mean angular velocity of exposed larvae ([2]; 0.4 µM): 0.283
- mean angular velocity of exposed larvae ([2]; 0.5 µM): 0.124
- mean angular velocity of exposed larvae ([2]; 0.6 µM): 0.0798
- mean angular velocity of exposed larvae ([2]; 0.8 µM): 0.0985
- mean angular velocity of exposed larvae ([3]; 0.1 µM): 0.111
- mean angular velocity of exposed larvae ([3]; 0.2 µM): 0.19
- mean angular velocity of exposed larvae ([3]; 0.4 µM): 0.173
- mean angular velocity of exposed larvae ([3]; 0.5 µM): 0.0668
- mean angular velocity of exposed larvae ([3]; 0.6 µM): 0.0447
- mean angular velocity of exposed larvae ([3]; 0.8 µM): 0.00094
- mean distance moved of exposed larvae ([4]; 0.1 µM): 11.5
- mean distance moved of exposed larvae ([4]; 0.2 µM): 14.8
- mean distance moved of exposed larvae ([4]; 0.4 µM): 7.04
- mean distance moved of exposed larvae ([4]; 0.5 µM): 3.9
- mean distance moved of exposed larvae ([4]; 0.6 µM): 2.89
- mean distance moved of exposed larvae ([4]; 0.8 µM): 3.08

SMILES: CN1C(=O)CN=C(c2ccccc2)c2cc(Cl)ccc21 [Diazepam]
- mean distance moved of exposed larvae ([1]; 1 µM): 10.9
- mean distance moved of exposed larvae ([1]; 3 µM): 7.88
- mean distance moved of exposed larvae ([1]; 5 µM): 7.53
- mean distance moved of exposed larvae ([1]; 8 µM): 10
- mean distance moved of exposed larvae ([1]; 12 µM): 11
- mean angular velocity of exposed larvae ([2]; 1 µM): 1.05
- mean angular velocity of exposed larvae ([2]; 3 µM): 1.06
- mean angular velocity of exposed larvae ([2]; 5 µM): 1.17
- mean angular velocity of exposed larvae ([2]; 8 µM): 0.786
- mean angular velocity of exposed larvae ([2]; 12 µM): 0.733
- mean angular velocity of exposed larvae ([3]; 1 µM): 0.379
- mean angular velocity of exposed larvae ([3]; 3 µM): 0.422
- mean angular velocity of exposed larvae ([3]; 5 µM): 0.41
- mean angular velocity of exposed larvae ([3]; 8 µM): 0.389
- mean angular velocity of exposed larvae ([3]; 12 µM): 0.456
- mean distance moved of exposed larvae ([4]; 1 µM): 22.5
- mean distance moved of exposed larvae ([4]; 3 µM): 22.7
- mean distance moved of exposed larvae ([4]; 5 µM): 21.5
- mean distance moved of exposed larvae ([4]; 8 µM): 17.3
- mean distance moved of exposed larvae ([4]; 12 µM): 17

SMILES: c1ccc2c(c1)c1cccc3c4ccccc4c4cccc2c4c13 [Dibenzo[e-l]pyrene]
- mean distance moved of exposed larvae ([1]; 0.01 µM): 7.75
- mean distance moved of exposed larvae ([1]; 0.025 µM): 6.96
- mean distance moved of exposed larvae ([1]; 0.065 µM): 6.48
- mean distance moved of exposed larvae ([1]; 0.164 µM): 8.06
- mean distance moved of exposed larvae ([1]; 0.35 µM): 7.37
- mean distance moved of exposed larvae ([1]; 0.75 µM): 6.8
- mean distance moved of exposed larvae ([1]; 1 µM): 4.47
- mean distance moved of exposed larvae ([1]; 2.54 µM): 2.56
- mean distance moved of exposed larvae ([1]; 6.45 µM): 1.7
- mean distance moved of exposed larvae ([1]; 16.4 µM): 1.99
- mean distance moved of exposed larvae ([1]; 35 µM): 1.66
- mean distance moved of exposed larvae ([1]; 74.8 µM): 1.63
- mean distance moved of exposed larvae ([1]; 100 µM): 3.03
- mean angular velocity of exposed larvae ([2]; 0.01 µM): 0.665
- mean angular velocity of exposed larvae ([2]; 0.025 µM): 0.598
- mean angular velocity of exposed larvae ([2]; 0.065 µM): 0.644
- mean angular velocity of exposed larvae ([2]; 0.164 µM): 0.681
- mean angular velocity of exposed larvae ([2]; 0.35 µM): 0.693
- mean angular velocity of exposed larvae ([2]; 0.75 µM): 0.704
- mean angular velocity of exposed larvae ([2]; 1 µM): 0.415
- mean angular velocity of exposed larvae ([2]; 2.54 µM): 0.428
- mean angular velocity of exposed larvae ([2]; 6.45 µM): 0.349
- mean angular velocity of exposed larvae ([2]; 16.4 µM): 0.245
- mean angular velocity of exposed larvae ([2]; 35 µM): 0.503
- mean angular velocity of exposed larvae ([2]; 74.8 µM): 0.384
- mean angular velocity of exposed larvae ([2]; 100 µM): 0.353
- mean angular velocity of exposed larvae ([3]; 0.01 µM): 0.217
- mean angular velocity of exposed larvae ([3]; 0.025 µM): 0.129
- mean angular velocity of exposed larvae ([3]; 0.065 µM): 0.194
- mean angular velocity of exposed larvae ([3]; 0.164 µM): 0.187
- mean angular velocity of exposed larvae ([3]; 0.35 µM): 0.147
- mean angular velocity of exposed larvae ([3]; 0.75 µM): 0.138
- mean angular velocity of exposed larvae ([3]; 1 µM): 0.119
- mean angular velocity of exposed larvae ([3]; 2.54 µM): 0.113
- mean angular velocity of exposed larvae ([3]; 6.45 µM): 0.0734
- mean angular velocity of exposed larvae ([3]; 16.4 µM): 0.0678
- mean angular velocity of exposed larvae ([3]; 35 µM): 0.0716
- mean angular velocity of exposed larvae ([3]; 74.8 µM): 0.0555
- mean angular velocity of exposed larvae ([3]; 100 µM): 0.0996
- mean distance moved of exposed larvae ([4]; 0.01 µM): 23.6
- mean distance moved of exposed larvae ([4]; 0.025 µM): 22.4
- mean distance moved of exposed larvae ([4]; 0.065 µM): 24.7
- mean distance moved of exposed larvae ([4]; 0.164 µM): 22.8
- mean distance moved of exposed larvae ([4]; 0.35 µM): 25.3
- mean distance moved of exposed larvae ([4]; 0.75 µM): 26.3
- mean distance moved of exposed larvae ([4]; 1 µM): 13.5
- mean distance moved of exposed larvae ([4]; 2.54 µM): 10.8
- mean distance moved of exposed larvae ([4]; 6.45 µM): 9.33
- mean distance moved of exposed larvae ([4]; 16.4 µM): 8.16
- mean distance moved of exposed larvae ([4]; 35 µM): 12
- mean distance moved of exposed larvae ([4]; 74.8 µM): 9.85
- mean distance moved of exposed larvae ([4]; 100 µM): 9.64

SMILES: CCN(CC(=O)O)S(=O)(=O)C(F)(F)C(F)(F)C(F)(F)C(F)(F)C(F)(F)C(F)(F)C(F)(F)C(F)(F)F [N-ethylperfluoro-1-octanesulfonamidoacetic acid]
- mean distance moved of exposed larvae ([1]; 0.25 µM): 1.44
- mean angular velocity of exposed larvae ([2]; 0.25 µM): 0.335
- mean angular velocity of exposed larvae ([3]; 0.25 µM): 0.0592
- mean distance moved of exposed larvae ([4]; 0.25 µM): 8.83

SMILES: CN(CC(=O)O)S(=O)(=O)C(F)(F)C(F)(F)C(F)(F)C(F)(F)C(F)(F)C(F)(F)C(F)(F)C(F)(F)F [N-methylperfluoro-1-octanesulfonamidoacetic acid]
- mean distance moved of exposed larvae ([1]; 0.25 µM): 1.43
- mean angular velocity of exposed larvae ([2]; 0.25 µM): 0.256
- mean angular velocity of exposed larvae ([3]; 0.25 µM): 0.0567
- mean distance moved of exposed larvae ([4]; 0.25 µM): 6.38

SMILES: NC(=O)C(F)(F)C(F)(F)C(F)(F)C(F)(F)F [Nonafluoropentanamide]
- mean distance moved of exposed larvae ([1]; 0.015 µM): 2.24
- mean distance moved of exposed larvae ([1]; 0.046 µM): 4.1
- mean distance moved of exposed larvae ([1]; 0.14 µM): 3.32
- mean distance moved of exposed larvae ([1]; 0.41 µM): 2.83
- mean distance moved of exposed larvae ([1]; 1.23 µM): 1.91
- mean distance moved of exposed larvae ([1]; 3.7 µM): 2.44
- mean distance moved of exposed larvae ([1]; 11.1 µM): 3.86
- mean distance moved of exposed larvae ([1]; 33.3 µM): 2.5
- mean distance moved of exposed larvae ([1]; 66.5 µM): 2.36
- mean distance moved of exposed larvae ([1]; 100 µM): 2.76
- mean angular velocity of exposed larvae ([2]; 0.015 µM): 0.911
- mean angular velocity of exposed larvae ([2]; 0.046 µM): 1.03
- mean angular velocity of exposed larvae ([2]; 0.14 µM): 0.788
- mean angular velocity of exposed larvae ([2]; 0.41 µM): 0.731
- mean angular velocity of exposed larvae ([2]; 1.23 µM): 0.649
- mean angular velocity of exposed larvae ([2]; 3.7 µM): 0.476
- mean angular velocity of exposed larvae ([2]; 11.1 µM): 0.903
- mean angular velocity of exposed larvae ([2]; 33.3 µM): 0.989
- mean angular velocity of exposed larvae ([2]; 66.5 µM): 0.804
- mean angular velocity of exposed larvae ([2]; 100 µM): 0.714
- mean angular velocity of exposed larvae ([3]; 0.015 µM): 0.107
- mean angular velocity of exposed larvae ([3]; 0.046 µM): 0.153
- mean angular velocity of exposed larvae ([3]; 0.14 µM): 0.163
- mean angular velocity of exposed larvae ([3]; 0.41 µM): 0.0614
- mean angular velocity of exposed larvae ([3]; 1.23 µM): 0.124
- mean angular velocity of exposed larvae ([3]; 3.7 µM): 0.0715
- mean angular velocity of exposed larvae ([3]; 11.1 µM): 0.078
- mean angular velocity of exposed larvae ([3]; 33.3 µM): 0.103
- mean angular velocity of exposed larvae ([3]; 66.5 µM): 0.0723
- mean angular velocity of exposed larvae ([3]; 100 µM): 0.107
- mean distance moved of exposed larvae ([4]; 0.015 µM): 25.4
- mean distance moved of exposed larvae ([4]; 0.046 µM): 26.1
- mean distance moved of exposed larvae ([4]; 0.14 µM): 19.4
- mean distance moved of exposed larvae ([4]; 0.41 µM): 25.8
- mean distance moved of exposed larvae ([4]; 1.23 µM): 17.3
- mean distance moved of exposed larvae ([4]; 3.7 µM): 12.1
- mean distance moved of exposed larvae ([4]; 11.1 µM): 23.9
- mean distance moved of exposed larvae ([4]; 33.3 µM): 26.5
- mean distance moved of exposed larvae ([4]; 66.5 µM): 18.1
- mean distance moved of exposed larvae ([4]; 100 µM): 19.5

SMILES: O=C(O)C(F)(F)C(F)(F)C(F)(F)C(F)(F)C(F)(F)C(F)(F)C(F)(F)C(F)(F)C(F)(F)C(F)(F)C(F)(F)C(F)(F)C(F)(F)C(F)(F)C(F)(F)F [Perfluoro-n-hexadecanoic acid]
- mean distance moved of exposed larvae ([1]; 0.25 µM): 6.65
- mean angular velocity of exposed larvae ([2]; 0.25 µM): 0.833
- mean angular velocity of exposed larvae ([3]; 0.25 µM): 0.178
- mean distance moved of exposed larvae ([4]; 0.25 µM): 27.2
